Measurements reported in ChEMBL document CHEMBL1201862, “PubChem BioAssay data set” (2004).
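Following 48 hours of exposure in 96-well plates, responses at five concentrations were used to interpolate endpoints linearly. The concentration for 50% growth inhibition is given as GI50.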 The source made the active and inactive calls. No stated cut-off is given here; in the data, active = GI50 up to about 1.1 µM and inactive = higher.

What was measured:
Assay in all cases: NCI tumour cell line growth inhibition, 48 h
[1] = system: PC-3
[2] = system: BT-549
[3] = system: HOP-92
[4] = system: SF-295
[5] = system: ACHN
[6] = system: U-251
[7] = system: MOLT-4
[8] = system: SF-268
[9] = system: HCT-116
[10] = system: K562
[11] = system: NCI-H226
[12] = system: SNB-75
[13] = system: UACC-62
[14] = system: SK-MEL-5
[15] = system: UO-31
[16] = system: OVCAR-8
[17] = system: CCRF-CEM
[18] = system: COLO 205
[19] = system: SR

Row | Structure (SMILES) | GI50 [1] | GI50 [2] | GI50 [3] | GI50 [4] | GI50 [5] | GI50 [6] | GI50 [7] | GI50 [8] | GI50 [9] | GI50 [10] | GI50 [11] | GI50 [12] | GI50 [13] | GI50 [14] | GI50 [15] | GI50 [16] | GI50 [17] | GI50 [18] | GI50 [19]
1 | CCC[C@H](C)C[C@H](C)C[C@H](C)/C=C(\C)[C@@H](O)[C@@H](C)C(=O)CC | 20 µM (inactive) | 23.4 µM (inactive) | 20.8 µM (inactive) | 22.9 µM (inactive) | 21.9 µM (inactive) | 22.4 µM (inactive) | 21.4 µM (inactive) | 20.9 µM (inactive) | 17.5 µM (inactive) | 18.3 µM (inactive) | 21 µM (inactive) | 49.9 µM (inactive) | 17.1 µM (inactive) | 18.9 µM (inactive) | 23 µM (inactive) | 20.3 µM (inactive) | 24.3 µM (inactive) |  | 
2 | CNC(=O)CCNC(=O)CCC(=O)OC | > 100 µM (inactive) |  |  | > 100 µM (inactive) | > 100 µM (inactive) | > 100 µM (inactive) | > 100 µM (inactive) | > 100 µM (inactive) | > 100 µM (inactive) | > 100 µM (inactive) |  |  | > 100 µM (inactive) | > 100 µM (inactive) | > 100 µM (inactive) | > 100 µM (inactive) |  | > 100 µM (inactive) | 
3 | O=C(NNc1cn[nH]c(=O)c1Cl)/C(=C/c1ccc2c(c1)OCO2)NC(=O)c1ccccc1 | 61.2 µM (inactive) | 18.5 µM (inactive) | > 100 µM (inactive) | 71.3 µM (inactive) | 59.8 µM (inactive) | 53.5 µM (inactive) | 33.4 µM (inactive) |  | 34.8 µM (inactive) |  | 21.9 µM (inactive) | 24.9 µM (inactive) | 35.2 µM (inactive) | 40.8 µM (inactive) | 48.2 µM (inactive) | 36.7 µM (inactive) |  | 46.9 µM (inactive) | 
4 | NC1CC(=O)c2cc(Cl)sc21 (stereo unspecified) | > 100 µM (inactive) | > 100 µM (inactive) | > 100 µM (inactive) | > 100 µM (inactive) | > 100 µM (inactive) | > 100 µM (inactive) |  | > 100 µM (inactive) | > 100 µM (inactive) | 0.929 µM (active) | > 100 µM (inactive) | > 100 µM (inactive) | > 100 µM (inactive) | > 100 µM (inactive) | > 100 µM (inactive) | > 100 µM (inactive) | > 100 µM (inactive) | > 100 µM (inactive) | 
5 | C=C1C(=O)O[C@@H]2[C@H]1CC[C@H](C)[C@]1(O)CCC(=O)[C@@]21C [CORONOPILIN] | > 10 µM (inactive) |  | > 10 µM (inactive) | > 10 µM (inactive) |  | > 10 µM (inactive) | > 10 µM (inactive) | > 10 µM (inactive) | > 10 µM (inactive) | > 10 µM (inactive) | > 10 µM (inactive) | > 10 µM (inactive) | > 10 µM (inactive) | > 10 µM (inactive) | 0.0094 µM (active) | > 10 µM (inactive) | 4.69 µM (inactive) | > 10 µM (inactive) | 5.73 µM (inactive)
6 | CN(C)CCNc1ccc([N+](=O)[O-])c2nc3ccccc3c(N)c12 | 0.405 µM (active) |  | 0.547 µM (active) | 0.711 µM (active) | 0.313 µM (active) | 0.703 µM (active) | 0.434 µM (active) | 0.507 µM (active) | 0.261 µM (active) | 0.341 µM (active) | > 10 µM (inactive) | 0.841 µM (active) | 1.15 µM (inactive) | 1.41 µM (inactive) | 0.757 µM (active) | 0.792 µM (active) | 0.241 µM (active) | 0.182 µM (active) | 0.282 µM (active)
7 | CN(C)CCNC(=O)c1cccc2c1nc(-c1ccc(F)cc1)c1ccccc12 |  |  | 2.45 µM (inactive) | 6.05 µM (inactive) | 2.64 µM (inactive) | 3.18 µM (inactive) | 0.232 µM (active) | 6.58 µM (inactive) | 2.46 µM (inactive) | 2.44 µM (inactive) | 2.06 µM (inactive) | 10.7 µM (inactive) | 3.09 µM (inactive) | 2.34 µM (inactive) | 1.64 µM (inactive) | 4.33 µM (inactive) | 1.97 µM (inactive) | 3.21 µM (inactive) | 
8 | COC(=O)[C@H]1ON2O[C@@H](O[C@H]3CCCC[C@@H]3C(C)(C)c3ccccc3)C[C@@H]3CC[C@H]1[C@@]32C |  |  | > 100 µM (inactive) | > 100 µM (inactive) | > 100 µM (inactive) | > 100 µM (inactive) | > 100 µM (inactive) | > 100 µM (inactive) | > 100 µM (inactive) | > 100 µM (inactive) | > 100 µM (inactive) | > 100 µM (inactive) | > 100 µM (inactive) | > 100 µM (inactive) | > 100 µM (inactive) | > 100 µM (inactive) | > 100 µM (inactive) | > 100 µM (inactive) | > 100 µM (inactive)
9 | OC1=C2c3ccccc3NC2Oc2cc(F)ccc21 (stereo unspecified) | 18.8 µM (inactive) | 16 µM (inactive) | 18 µM (inactive) | 14.7 µM (inactive) | 18.7 µM (inactive) | 15.7 µM (inactive) | 13.6 µM (inactive) | 18.2 µM (inactive) | 14 µM (inactive) | 15.6 µM (inactive) | 22.4 µM (inactive) |  | 15.7 µM (inactive) | 15 µM (inactive) | 13.9 µM (inactive) | 27 µM (inactive) | 2.22 µM (inactive) | 14.5 µM (inactive) | 
10 | CN[C@@H](C)[C@H](OP(=O)(O)OC1[C@@H](O)[C@H](O)C(O)[C@H](O)[C@@H]1O)c1ccccc1 (stereo partly specified) | > 100 µM (inactive) | > 100 µM (inactive) | > 100 µM (inactive) | > 100 µM (inactive) | > 100 µM (inactive) | > 100 µM (inactive) | > 100 µM (inactive) | > 100 µM (inactive) | > 100 µM (inactive) |  | > 100 µM (inactive) | > 100 µM (inactive) | > 100 µM (inactive) | > 100 µM (inactive) | > 100 µM (inactive) | > 100 µM (inactive) | > 100 µM (inactive) | > 100 µM (inactive) | 
11 | CN1CCC(O)(OC(=O)C(c2ccccc2)C2(O)CCCC2)CC1 (stereo unspecified) | > 100 µM (inactive) |  | > 100 µM (inactive) | > 100 µM (inactive) | > 100 µM (inactive) | > 100 µM (inactive) | > 100 µM (inactive) | > 100 µM (inactive) | > 100 µM (inactive) | > 100 µM (inactive) | > 100 µM (inactive) | > 100 µM (inactive) | > 100 µM (inactive) | > 100 µM (inactive) |  | > 100 µM (inactive) | > 100 µM (inactive) | > 100 µM (inactive) | > 100 µM (inactive)
12 | CN(C)C1(N(C)C)Oc2c(c(=O)n(C)c(=O)n2C)C(c2ccc(F)cc2)C1(F)F (stereo unspecified) | > 100 µM (inactive) | > 100 µM (inactive) | > 100 µM (inactive) | > 100 µM (inactive) | > 100 µM (inactive) | > 100 µM (inactive) |  | > 100 µM (inactive) | > 100 µM (inactive) |  | > 100 µM (inactive) | > 100 µM (inactive) | > 100 µM (inactive) | > 100 µM (inactive) | > 100 µM (inactive) |  | > 100 µM (inactive) | > 100 µM (inactive) | 
13 | O=C(O)Cn1nnc2c(=O)[nH][nH]c(=O)c21 |  | > 100 µM (inactive) | > 100 µM (inactive) | > 100 µM (inactive) | > 100 µM (inactive) | > 100 µM (inactive) | > 10 µM (inactive) |  | > 100 µM (inactive) | > 10 µM (inactive) |  |  |  | > 100 µM (inactive) | > 100 µM (inactive) | > 100 µM (inactive) | > 100 µM (inactive) | > 100 µM (inactive) | > 100 µM (inactive)
14 | [O-][S+](c1ccc(O)cc1)c1ccc(O)cc1 |  |  | > 100 µM (inactive) | > 100 µM (inactive) |  | > 100 µM (inactive) | > 100 µM (inactive) | > 100 µM (inactive) | > 100 µM (inactive) | > 100 µM (inactive) | > 100 µM (inactive) | > 100 µM (inactive) | > 100 µM (inactive) | > 100 µM (inactive) | > 100 µM (inactive) |  | > 100 µM (inactive) | > 100 µM (inactive) | 
15 | CN(C)C(n1cc2c(c1)-c1ccc(Cl)cc1C(c1ccccc1F)=NC2)n1cc2c(c1)-c1ccc(Cl)cc1C(c1ccccc1F)=NC2 | 46.6 µM (inactive) |  |  | 26.3 µM (inactive) | 63.2 µM (inactive) | > 100 µM (inactive) | > 100 µM (inactive) | 36 µM (inactive) | 61.1 µM (inactive) | > 100 µM (inactive) | 13 µM (inactive) | 24.7 µM (inactive) | > 100 µM (inactive) | > 100 µM (inactive) | 97.3 µM (inactive) | > 100 µM (inactive) | > 100 µM (inactive) | > 100 µM (inactive) | > 100 µM (inactive)
16 | O=C(NC(Nc1ccc(F)c(Cl)c1)(C(F)(F)F)C(F)(F)F)C(C(F)(F)F)C(F)(F)F | 24.8 µM (inactive) |  | 29.2 µM (inactive) | 36.5 µM (inactive) | 13.5 µM (inactive) | 29.2 µM (inactive) | 15 µM (inactive) | 29.1 µM (inactive) | 16 µM (inactive) | 14.5 µM (inactive) | 24.1 µM (inactive) |  |  | 21.4 µM (inactive) | 19.5 µM (inactive) | 25.9 µM (inactive) | 22.1 µM (inactive) | 28.5 µM (inactive) | 28.2 µM (inactive)
17 | O=CCC1CCCCC1 | > 100 µM (inactive) | > 100 µM (inactive) | > 100 µM (inactive) | > 100 µM (inactive) | > 100 µM (inactive) |  | > 100 µM (inactive) | > 100 µM (inactive) | > 100 µM (inactive) | > 100 µM (inactive) | > 100 µM (inactive) | > 100 µM (inactive) |  | > 100 µM (inactive) | > 100 µM (inactive) |  |  | > 100 µM (inactive) | 
